Measurements as given in PMC2898662, “Midkine inhibitors: application of a simple assay procedure to screening of inhibitory compounds” (International Archives of Medicine, 2010).
Ends that are not written are not given here. Peptide text beside a SMILES is read from it.

Key:
UMR106 cells = test: Toxicity to UMR106 target cells in culture
Source text: These 10 compounds were surveyed for the activity to inhibit midkine activity.

midkine [1] = biological target: T1, midkine (Homo sapiens, UniProt P21741); test: Midkine activity: midkine-dependent migration of UMR106 cells (Chemotaxicell); type: cell-based; conditions: filter coated with 20 μg/ml midkine, 4 h, OD 590 nm
T1 construct: made in house; host or cells: yeast
T1 sequence (P21741 23-143 limits assumed): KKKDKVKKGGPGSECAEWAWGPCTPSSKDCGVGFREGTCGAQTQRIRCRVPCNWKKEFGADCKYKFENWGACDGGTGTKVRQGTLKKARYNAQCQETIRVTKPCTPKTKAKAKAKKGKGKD
Procedure: Midkine activity was determined by promotion of migration of UMR106 (ATTC No. 1661) cells. Chemotaxicell (pore size 8 micron, Kurabo Industries Ltd., Japan) was coated with 20 μg/ml of midkine at the lower surface of the filter for 1 h, and washed with Dulbecco's phosphate-buffered saline (PBS) twice. UMR106 cells (2 × 10^5 cells in 0.2 ml of Dulbecco's modified Eagle's medium with 0.3% bovine serum albumin) were added to the upper chamber. The lower chamber contained 0.5 ml of the same medium. Cells were cultured for 4 h. The inner Chemotaxicell was cleaned with PBS, and cells were fixed with 100% methanol at room temperature for 20 min. The inner cell was cleaned with cotton bar, and the migrated cells were stained with 1% crystal violet at room temperature for 30 min., and were washed with H2O. The cells were extracted with 0.2 ml of 1% SDS with 1% Triton X-100 for 1 h upon agitation. Then extract of 0.15 ml was transferred to a 96 well plate and OD 590 nm was determined. Upon inhibition assay using low molecular weight compounds, they were dissolved in ethanol and were added to the lower chamber so that the final ethanol concentration was 2%. The control contained also 2% ethanol in this occasion. Inhibition assay using peptides was performed by adding them dissolved in H2O. Assay was done in duplicate.

midkine [2] = biological target: T1, midkine; test: Binding activity to midkine by surface plasmon assay (BIACORE 3000); conditions: BIACORE 3000, midkine immobilised on CM5 chip; peptides 5 μg/ml in 10 mM HEPES-NaOH pH 7.4, 0.15 M NaCl, 0.0005% Tween 20; 25°C; read-out: Binding constant to midkine
Procedure: Binding activity to midkine was evaluated in the BIACORE 3000 System (GE Healthcare, UK Ltd). A CM5 sensor chip coated with carboxymethyldextran was activated by injecting a solution (1:1) of 200 mM N-ethyl-N'-(3-dimethylaminopropyl) carbodiimide hydrochloride and 100 mM N-hydroxysuccinimide at a flow rate of 10 μl/min. A 70 μl aliquot of midkine solution (50 μg/ml in 10 mM acetate buffer, pH 5.0) was injected for immobilization. The remaining activated N-hydroxysuccinimide ester groups were blocked by injecting 1 M ethanolamine hydrochloride/NaOH, pH 8.5, and washed with 10 μl of 1 M NaCl. Peptides (5 μg/ml) in the running buffer (10 mM HEPES-NaOH, pH 7.4, containing 0.15 M NaCl and 0.0005% Tween 20) were injected into the flow cell, and the change in resonance units was recorded. Binding assays were performed at 25°C with a constant flow rate of […] in both association and dissociation phases.

[3] = peptide added to culture of UMR106 cells at 1 mg/ml
[4] = peptide 1 mg/ml in lower chamber, dissolved in H2O, control without material = 100, duplicate

Molecule	Migration activity (%) (midkine [1]; [4])	Kd (midkine [2]) [nM]	other results
CC1CCCC(C)N1c1nc(-c2cccs2)cc(C(F)(F)F)n1 (stereo not shown) [Compound I, 2-(2,6-dimethylpiperidin-1-yl)-4-thiophen-2-yl-6-(trifluoromethy)pyrimidine]	–	–	Toxicity to the target cells (UMR106 cells; at the concentration used for the migration assay (Compound I 0.146 mg/ml, Compound II 0.10 mg/ml)): no toxicity; Migration activity (%) (midkine [1]; compound 0.146 mg/ml in lower chamber, 2% ethanol, control = 100, duplicate): 43.8 ± 10.2%
CC[C@H](C)[C@H](NC(=O)[C@H](CS)NC(=O)[C@H](CCC(=O)O)NC(=O)CNC(=O)[C@H](CS)NC(=O)[C@H](CO)NC(=O)[C@H](CCCCN)NC(=O)[C@H](C)NC(=O)[C@H](CC(N)=O)NC(=O)[C@H](C)NC(=O)[C@@H](N)CCCCN)C(=O)O [KA11] (H-KANAKSCGECI-OH)	43.7 ± 12.8	270	Toxicity to UMR106 cells (UMR106 cells; [3]): no toxicity was observed
AMETNLV [AM7]	99.5 ± 6.9	950	–
GTGTKVRQGTL [GT11, midkine-derived peptide … from β-sheet of C-terminal half]	156 ± 6	–	–
IENPRGSKDIKKNKN [IE15]	113 ± 10.1	300	–
KQNQVKFGS [KQ9]	107 ± 15	200	–
MQSTIRE [MQ7]	107 ± 2	230	–
PAKLRNPCT [PA9]	69.4 ± 46.1	450	–
QETIRVTKPC [QE10, midkine-derived peptide … from β-sheet of C-terminal half]	99.5 ± 10.6	–	–
TFSQRIEG [TF8]	105 ± 24	140	–
YKFENWGACDGG [YK12, midkine-derived peptide … from β-sheet of C-terminal half]	44.0 ± 10.5	–	Inhibition of cell-substratum adhesion of UMR106 cells (UMR106 cells; [3]): inhibition of cell-substratum adhesion was observed in a certain occasion; Toxicity to UMR106 cells (UMR106 cells; [3]): no toxicity was observed
